Experimental data reported in patent US8435978B2, “Substituted sulfonamide compounds” (Gruenenthal GmbH, priority 2006, dated 2013).
Structures can show the parent of a compound that is named as a salt. Blank lines part the entries; values can stand above or below the molecule they belong to.

What was measured:
human B1R receptor = target: T1, human B1R receptor (Homo sapiens, UniProt P46663); experiment: Functional study on the bradykinin receptor 1 (B1R), FLIPR Ca2+ assay, hB1R cells; type: cell-based; conditions: agonist Lys-Des-Arg9-bradykinin 0.5 nM, % inhibition compared with the maximum achievable inhibition; for inhibition at 10 µM: CHO-K1, test substance 10 μM, read-out: B1R Antagonism, human [10 μM] % Inhibition; for B1R Antagonism, human [10 μM] % Inhibition: test substance 10 μM, hB1R CHO K1 cells
T1 construct: host or cells: CHO K1 cells (Chinese hamster ovary), stably transfected
T1 sequence (P46663 1-353): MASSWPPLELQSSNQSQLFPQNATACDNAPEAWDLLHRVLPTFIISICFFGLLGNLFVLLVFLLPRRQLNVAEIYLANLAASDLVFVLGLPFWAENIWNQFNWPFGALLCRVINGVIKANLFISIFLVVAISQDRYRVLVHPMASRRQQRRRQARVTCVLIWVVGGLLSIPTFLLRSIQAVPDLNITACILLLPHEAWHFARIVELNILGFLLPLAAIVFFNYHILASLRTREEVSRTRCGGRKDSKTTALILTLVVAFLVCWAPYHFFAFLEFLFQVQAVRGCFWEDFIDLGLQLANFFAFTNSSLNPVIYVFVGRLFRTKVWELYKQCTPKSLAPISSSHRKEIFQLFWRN
Summary of the method: (§1)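 CHO K1 cells stably expressing human or rat B1R were loaded with Fluo-4 and read on a FLIPR (ex 488/em 540 nm, peak fluorescence). Test compounds at 10 μM were added first, then after 10 min agonist: Lys-Des-Arg9-bradykinin 0.5 nM for hB1R, Des-Arg9-bradykinin 100 nM for rB1R; % inhibition versus maximum inhibition.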

B1R receptor of the rat = target: T2, B1R receptor of the rat (Rattus norvegicus, UniProt P97583); experiment: Functional study on the bradykinin receptor 1 (B1R), FLIPR Ca2+ assay, rB1R cells; type: cell-based; conditions: agonist Des-Arg9-bradykinin 100 nM, % inhibition compared with the maximum achievable inhibition; for inhibition at 10 µM: CHO-K1, test substance 10 μM, read-out: B1R Antagonism, rat [10 μM] % Inhibition; for B1R Antagonism, rat [10 μM] % Inhibition: test substance 10 μM, rB1R CHO K1 cells
T2 construct: host or cells: CHO K1 cells (Chinese hamster ovary), stably transfected
T2 sequence (P97583 1-337): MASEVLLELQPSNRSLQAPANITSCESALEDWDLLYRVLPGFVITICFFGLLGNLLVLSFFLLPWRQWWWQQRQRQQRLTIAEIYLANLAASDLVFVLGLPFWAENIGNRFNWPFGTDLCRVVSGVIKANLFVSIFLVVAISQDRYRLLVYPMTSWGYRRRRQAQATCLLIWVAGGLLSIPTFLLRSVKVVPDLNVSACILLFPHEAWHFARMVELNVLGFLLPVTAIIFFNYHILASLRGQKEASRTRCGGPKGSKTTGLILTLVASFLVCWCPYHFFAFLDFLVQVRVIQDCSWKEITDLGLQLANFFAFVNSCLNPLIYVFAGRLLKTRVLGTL
Summary of the method: as §1

B1R Antagonism, human [10 μM] % Inhibition (human B1R receptor): 104% | B1R Antagonism, rat [10 μM] % Inhibition (B1R receptor of the rat): 98.6%
Structure (SMILES): COc1cc(C)c(S(=O)(=O)N2CCC[C@H]2COCC(=O)N2CCN(C3CCN(C)CC3)CC2)c(C)c1 [Example 180, (S)-2-((1-(4-methoxy-2,6-diimethylphenylsulfonyl)pyrrolidin-2-yl)methoxy)-1-(4-(1-methylpiperidin-4-yl)piperazin-1-yl)ethanone]

inhibition at 10 µM (human B1R receptor): 48.8% | inhibition at 10 µM (B1R receptor of the rat): 88.4%
Structure (SMILES): COc1cc(C)c(S(=O)(=O)N2CCCCC2COCC(=O)NCCCN2CCOCC2)c(C)c1 (stereo not shown) [Example 344, 2-((1-(4-methoxy-2,6-dimethylphenylsulfonyl)piperidin-2-yl)methoxy)-N-(3-morpholinopropyl)acetamide]

inhibition at 10 µM (human B1R receptor): 22.9% | inhibition at 10 µM (B1R receptor of the rat): 101%
Structure (SMILES): COc1cc(C)c(S(=O)(=O)N2CCCCC2COCC(=O)N2CCN(C)CC2c2ccccc2)c(C)c1 (stereo not shown) [Example 388, 2-((1-(4-methoxy-2,6-dimethylphenylsulfonyl)piperidin-2-yl)methoxy)-1-(4-methyl-2-phenylpiperazin-1-yl)ethanone]

inhibition at 10 µM (human B1R receptor): 43.9% | inhibition at 10 µM (B1R receptor of the rat): 79.9%
Structure (SMILES): CN1CCC(N2CCN(C(=O)COCC3CCCCN3S(=O)(=O)c3ccc(Br)cc3)CC2)CC1 (stereo not shown) [Example 123, 2-((1-(4-bromophenylsulfonyl)piperidin-2-yl)methoxy)-1-(4-(1-methylpiperidin-4-yl)piperazin-1-yl)ethanone]

inhibition at 10 µM (human B1R receptor): 63.4% | inhibition at 10 µM (B1R receptor of the rat): 98.8%
Structure (SMILES): COc1cc(C)c(S(=O)(=O)N2CCCCC2COCC(=O)N2CCN(c3ccc(Cl)c(Cl)c3)CC2)c(C)c1 (stereo not shown) [Example 378, 1-(4-(3,4-dichlorophenyl)piperazin-1-yl)-2-((1-(4-methoxy-2,6-dimethylphenylsulfonyl)piperidin-2-yl)methoxy)ethanone]

B1R Antagonism, human [10 μM] % Inhibition (human B1R receptor): 68.07% | B1R Antagonism, rat [10 μM] % Inhibition (B1R receptor of the rat): 48.84%
Structure (SMILES): CN(C(=O)COCC1CCCCN1S(=O)(=O)c1cccc2ccccc12)C(CN1CCOCC1)c1ccccc1 (stereo not shown) [Example 47, N-methyl-N-(2-morpholin-4-yl-1-phenyl-ethyl)-2-[1-(naphthyl-1-sulfonyl)-piperidin-2-ylmethoxy]-acetamide]

inhibition at 10 µM (human B1R receptor): 104% | inhibition at 10 µM (B1R receptor of the rat): 98.5%
Structure (SMILES): CN1CCC(N2CCN(C(=O)COCC3CCCCN3S(=O)(=O)c3ccc(C(F)(F)F)cc3Cl)CC2)CC1 (stereo not shown) [Example 138, 2-((1-(2-chloro-4-(trifluoromethyl)phenylsulfonyl)piperidin-2-yl)methoxy)-1-(4-(1-methylpiperidin-4-yl)piperazin-1-yl)ethanone]

inhibition at 10 µM (human B1R receptor): 52% | inhibition at 10 µM (B1R receptor of the rat): 101%
Structure (SMILES): COc1cc(C)c(S(=O)(=O)N2CCCC2COCC(=O)N2CCN(c3ncccn3)CC2)c(C)c1 (stereo not shown) [Example 309, 2-((1-(4-methoxy-2,6-dimethylphenylsulfonyl)pyrrolidin-2-yl)methoxy)-1-(4-(pyrimidin-2-yl)piperazin-1-yl)ethanone]

inhibition at 10 µM (human B1R receptor): 106% | inhibition at 10 µM (B1R receptor of the rat): 99.8%
Structure (SMILES): O=C(COCC1CCCN1S(=O)(=O)c1c(Cl)cc(Cl)cc1Cl)N1CCN(c2ccncc2)CC1 (stereo not shown) [Example 335, 1-(4-(pyridin-4-yl)piperazin-1-yl)-2-((1-(2,4,6-trichlorophenylsulfonyl)pyrrolidin-2-yl)methoxy)ethanone]

The remaining lines, values behind:

Structure (SMILES): Cc1cc(C)c(S(=O)(=O)N2CCCCC2COCC(=O)N2CCC(c3nc4cc(C)ccc4[nH]3)CC2)c(C)c1 (stereo not shown) [Example 222, 2-((1-(mesitylsulfonyl)piperidin-2-yl)methoxy)-1-(4-(5-methyl-1H-benzo[d]imidazol-2-yl)piperidin-1-yl)ethanone]
inhibition at 10 µM (human B1R receptor): 7.55% | inhibition at 10 µM (B1R receptor of the rat): 114%

Structure (SMILES): COc1cc(C)c(S(=O)(=O)N2CCCC2COCC(=O)N2CCN(c3ncccc3C#N)CC2)c(C)c1 (stereo not shown) [Example 312, 2-(4-(2-((1-(4-methoxy-2,6-dimethylphenylsulfonyl)pyrrolidin-2-yl)methoxy)acetyl)piperazin-1-yl)nicotinonitrile]
inhibition at 10 µM (human B1R receptor): 98.5% | inhibition at 10 µM (B1R receptor of the rat): 98.7%

Structure (SMILES): COc1cc(OC)cc(N2CCN(C(=O)COCC3CCCCN3S(=O)(=O)c3c(C)cc(OC)cc3C)CC2)c1 (stereo not shown) [Example 340, 1-(4-(3,5-dimethoxyphenyl)piperazin-1-yl)-2-((1-(4-methoxy-2,6-dimethylphenylsulfonyl)piperidin-2-yl)methoxy)ethanone]
inhibition at 10 µM (human B1R receptor): 105% | inhibition at 10 µM (B1R receptor of the rat): 101%

Structure (SMILES): CN1CCC(N2CCN(C(=O)COCC3Cc4ccccc4CN3S(=O)(=O)c3ccc4ccccc4c3)CC2)CC1 (stereo not shown) [Example 178, 1-(4-(1-methylpiperidin-4-yl)piperazin-1-yl)-2-((2-(naphthalen-2-ylsulfonyl)-1,2,3,4-tetrahydroisoquinolin-3-yl)methoxy)ethanone dihydrochloride]
inhibition at 10 µM (human B1R receptor): 102% | inhibition at 10 µM (B1R receptor of the rat): 99.8%

Structure (SMILES): COc1cc(C)c(S(=O)(=O)N2CCCC[C@H]2COCC(=O)N2CCN(C3CCN(C)CC3)CC2)c(C)c1 [Example 167, (S)-2-((1-(4-methoxy-2,6-dimethylphenylsulfonyl)piperidin-2-yl)methoxy)-1-(4-(1-methylpiperidin-4-yl)piperazin-1-yl)ethanone]
inhibition at 10 µM (human B1R receptor): 102% | inhibition at 10 µM (B1R receptor of the rat): 101%

Structure (SMILES): Cc1cc(C)c(S(=O)(=O)N2CCCCC2COCC(=O)N2CCC(N3CCCC3)CC2)c(C)c1 (stereo not shown) [Example 19, 2-((1-(mesitylsulfonyl)piperidin-2-yl)methoxy)-1-(4-(pyrrolidin-1-yl)piperidin-1-yl)-ethanone]
inhibition at 10 µM (human B1R receptor): 95% | inhibition at 10 µM (B1R receptor of the rat): 98.9%

Structure (SMILES): COc1cc(C)c(S(=O)(=O)N2CCCC2COCC(=O)N2CCN(Cc3ccccc3F)CC2)c(C)c1 (stereo not shown) [Example 444, 1-(4-(2-fluorobenzyl)piperazin-1-yl)-2-((1-(4-methoxy-2,6-dimethylphenylsulfonyl)pyrrolidin-2-yl)methoxy)ethanone]
inhibition at 10 µM (human B1R receptor): 92.8% | inhibition at 10 µM (B1R receptor of the rat): 98.6%

Structure (SMILES): COc1cc(C)c(S(=O)(=O)N2CCCCC2COCC(=O)Nc2cc(-c3cccs3)n[nH]2)c(C)c1 (stereo not shown) [Example 539, 2-((1-(4-methoxy-2,6-dimethylphenylsulfonyl)piperidin-2-yl)methoxy)-N-(3-(thiophen-2-yl)-1H-pyrazol-5-yl)acetamide]
inhibition at 10 µM (human B1R receptor): 38.8% | inhibition at 10 µM (B1R receptor of the rat): 107%

Structure (SMILES): O=C(COCC1CCCCN1S(=O)(=O)c1c(Cl)cc(Cl)cc1Cl)NCCN1CCCC1 (stereo not shown) [Example 459, N-(2-(pyrrolidin-1-yl)ethyl)-2-((1-(2,4,6-trichlorophenylsulfonyl)piperidin-2-yl)methoxy)acetamide]
inhibition at 10 µM (human B1R receptor): 57.1% | inhibition at 10 µM (B1R receptor of the rat): 102%

Structure (SMILES): CN(CCC1CCC(N2CCCC2)CC1)C(=O)COCC1CCc2ccccc2N1S(=O)(=O)c1ccc(Cl)c(Cl)c1 (stereo not shown) [Example 216, 2-((1-(3,4-dichlorophenylsulfonyl)-1,2,3,4-tetrahydroquinolin-2-yl)methoxy)-N-methyl-N-(2-(4-(pyrrolidin-1-yl)cyclohexyl)ethyl)acetamide]
inhibition at 10 µM (human B1R receptor): -10.1% | inhibition at 10 µM (B1R receptor of the rat): 4.48%

Structure (SMILES): COc1cc(C)c(S(=O)(=O)N2Cc3ccccc3C[C@H]2COCC(=O)N2CCN(CC3CCN(C)CC3)CC2)c(C)c1 [Example 185, (S)-2-((2-(4-methoxy-2,6-dimethylphenylsulfonyl)-1,2,3,4-tetrahydroisoquinolin-3-yl)methoxy)-1-(4-((1-methylpiperidin-4-yl)methyl)piperazin-1-yl)ethanone]
inhibition at 10 µM (human B1R receptor): 105% | inhibition at 10 µM (B1R receptor of the rat): 97.9%

Structure (SMILES): COc1ccc(N2CCN(C(=O)COCC3CCCN3S(=O)(=O)c3c(Cl)cc(Cl)cc3Cl)CC2)cc1 (stereo not shown) [Example 328, 1-(4-(4-methoxyphenyl)piperazin-1-yl)-2-((1-(2,4,6-trichlorophenylsulfonyl)pyrrolidin-2-yl)methoxy)ethanone]
inhibition at 10 µM (human B1R receptor): 104% | inhibition at 10 µM (B1R receptor of the rat): 102%

Structure (SMILES): COc1cc(C)c(S(=O)(=O)N2CCCCC2COCC(=O)NCc2ccccc2N2CCCCC2)c(C)c1 (stereo not shown) [Example 428, 2-((1-(4-methoxy-2,6-dimethylphenylsulfonyl)piperidin-2-yl)methoxy)-N-(2-(piperidin-1-yl)benzyl)acetamide]
inhibition at 10 µM (human B1R receptor): 23.8% | inhibition at 10 µM (B1R receptor of the rat): 102%

Structure (SMILES): COc1cc(C)c(S(=O)(=O)N2CCCCC2COCC(=O)NCc2ccc(N3CCOCC3)cc2)c(C)c1 (stereo not shown) [Example 21, 2-[1-(4-methoxy-2,6-dimethyl-phenylsulfonyl)-piperidin-2-ylmethoxy]-N-(4-morpholin-4-yl-benzyl)-acetamide]
B1R Antagonism, human [10 μM] % Inhibition (human B1R receptor): 93.47% | inhibition at 10 µM (B1R receptor of the rat): 108%
